The source of these data is paper PMC6259277, “Synthesis, Gastroprotective Effect and Cytotoxicity of New Amino Acid Diterpene Monoamides and Diamides” (Molecules, 2010).

Molecules are shown by their SMILES.

A short description of data set [1]: Cytotoxicity, neutral red uptake assay, AGS. Format: cell-based. The conditions noted are these: human, AGS gastric adenocarcinoma cells, confluent monolayers, confluent cultures, 0-1000 µM, mean ± SD. The protocol: (§1) Human gastric adenocarcinoma cells AGS (ATCC CRL-1739) were grown as monolayers in Ham F-12 medium containing 1.0 mM L-glutamine and 1.5 g/L sodium bicarbonate, supplemented with 10% heat-inactivated FBS, 100 IU/mL penicillin and 100 µg/mL streptomycin in a humidified incubator with 5% CO2 in air at 37 °C. The cell passage was maintained between 42 and 48. The medium was changed every 2 days. Confluent cultures of MRC-5, AGS and Hep G2 cells were treated with medium containing the compounds at concentrations ranging from 0 up to 1000 µM. The products were first dissolved in DMSO and then in the corresponding culture medium supplemented with 2% FBS. The final content of DMSO in the test medium and controls was 1%. Cells were exposed for 24 h to the assayed compounds. Untreated cells served as controls. Each concentration was tested in quadruplicate together with the control and repeated three times in separate experiments. At the end of the incubation, the neutral red uptake (NRU) assay was carried out to determine cell viability. To calculate the IC50 values (concentration that produces a 50% inhibitory effect on the evaluated parameter) the results were transformed to percentage of controls and the IC50 value was graphically obtained from the dose-response curves.

For data set [2], the system named is ethanol/HCl-induced gastric lesions. The data set can be described thus: Ethanol/HCl-induced gastric lesion (ulcer) model in mice. In kind it is in vivo. To be noted: for inhibition in vivo at 25 mg/kg: Mus musculus, po, read-out: Gastroprotective effect: % Lesion reduction; for Gastroprotective effect: Lesion index: mean ± SD, sum of lesion lengths; for gastric lesion reduction at the higher doses: dose-response study, higher oral doses (50 and 100 mg/kg). The protocol: The gastroprotective activity of the compounds was determined in the ethanol/HCl-induced lesion model in mice. The purity of the tested compounds was higher than 95% by NMR analysis. Male Swiss albino mice weighing 30 ± 3 g were used. Animals were fed on certified Champion diet with free access to water under standard conditions of 12 h dark-light period, 50% relative humidity and 22 °C room temperature. Mice were randomly distributed into groups of eight animals each and fasted for 24 h with free access to water previous to the experiment. Fasting prior to ulcerogenic assays was used because 0.2 mL of the reference antisecretory drug lansoprazole (2-[[[3-methyl-4-(2,2,2-trifluroethoxy)-2-pyridyl]methyl]sulfinyl]benzimidazole) and the amides were administered orally. To keep the animal number to a minimum, dose-response studies were performed with the leucine derivatives 13 and 18 to set the conditions for single-dose comparison of gastroprotective effect. For the selected parent compounds, three doses were used: 25, 50 and 100 mg/kg. Fifty min after oral administration of the compounds, lansoprazole (20 mg/kg) or the vehicle (12% Tween 80, 10 mL/kg), all groups were orally treated with 0.2 mL of a solution containing 60% ethanol/0.3 M HCl (ethanol/HCl) for gastric lesion induction. Animals were sacrificed by cervical dislocation 1 h after the administration of ethanol/HCl, and the stomachs excised and inflated by injection of 5% formalin (1 mL). The ulcerated stomachs were fixed in 5% formalin for 30 min and opened along the greater curvature. The length (mm) of each lesion was measured, and the lesion index expressed as the sum of the length of all lesions. For comparison purposes, the products 1-5, 7-12, 14-16, 19 and 20 were assessed at a single oral dose of 25 mg/kg. The protocols were approved by the Universidad de Talca Institutional Animal Care and Use Committee, which follows the recommendations of the Canadian Council on Animal Care. Tween 80 and lansoprazole (> 98% purity by HPLC) were purchased from Sigma Chemical Co.
Results were expressed as the mean ± SD. In all experiments, statistical differences between several treatments and their respective control were determined by one-way analysis of variance (ANOVA) and when the F value was significant, post hoc differences were determined by the Dunnett's multiple comparison test. The level of significance was set at P < 0.05. All statistical analyses were performed using the software Statistica 5.1 (StatSoft, Inc.) and Statistical Package S-Plus 2000.

A short description of data set [3]: Cytotoxicity, neutral red uptake assay, MRC-5. Format: cell-based. The conditions noted are these: human, MRC-5 normal lung fibroblasts, confluent monolayers, confluent cultures, 0-1000 µM, mean ± SD. The protocol: (§2) Human normal lung fibroblasts MRC-5 (ATCC CCL-171) and Hep G2 cells (ATCC HB-8065) were grown as monolayers in minimum essential Eagle´s medium (MEM), with Earle's salts, 2.0 mM L-glutamine (Sigma Chemical Co.) and 2.0 g/L sodium bicarbonate (Sigma Chemical Co.), supplemented with 10% heat-inactivated fetal bovine serum (FBS), 100 IU/mL penicillin and 100 µg/mL streptomycin in a humidified incubator with 5% CO2 in air at 37 °C. Cell passage was maintained between 10 and 16 for MRC-5 and between 79 and 82 for Hep G2 cells. The medium was changed every 2 days. Culture media, antibiotics and FBS were obtained from Invitrogen Corp.
as §1, with “Confluent” for “Human gastric adenocarcinoma cells AGS (ATCC CRL-1739) were grown as monolayers in Ham F-12 medium containing 1.0 mM L-glutamine and 1.5 g/L sodium bicarbonate, supplemented with 10% heat-inactivated FBS, 100 IU/mL penicillin and 100 µg/mL streptomycin in a humidified incubator with 5% CO2 in air at 37 °C. The cell passage was maintained between 42 and 48. The medium was changed every 2 days. Confluent”

Data set [4] is described as follows: Cytotoxicity, neutral red uptake assay, Hep G2. Format: cell-based. The conditions noted are these: human, Hep G2 cells, confluent monolayers, confluent cultures, 0-1000 µM, mean ± SD. Here is the method: as §2
as §1, with “Confluent” for “Human gastric adenocarcinoma cells AGS (ATCC CRL-1739) were grown as monolayers in Ham F-12 medium containing 1.0 mM L-glutamine and 1.5 g/L sodium bicarbonate, supplemented with 10% heat-inactivated FBS, 100 IU/mL penicillin and 100 µg/mL streptomycin in a humidified incubator with 5% CO2 in air at 37 °C. The cell passage was maintained between 42 and 48. The medium was changed every 2 days. Confluent”

Where [5] appears, read: single oral dose 25 mg/kg, compared with untreated controls.
[6] abbreviates: single oral dose 25 mg/kg, 25 mg/kg.

A word on the IC50: it is the midpoint of a concentration-inhibition curve. For `C=C1CCC2[C@](C)(CCC[C@]2(C)C(=O)N2CCC[C@H]2C(=O)OC)[C@H]1CC[C@@H](C)CC(=O)N1CCC[C@H]1C(=O)OC` (stereo partly drawn) [Compound 19, Labd-8(17)-en-15,19-dioic acid, 15,19-diprolyl methyl ester amide], the half-inhibitory concentration (IC50) at 24 h in data set [1] is 206 ± 10 µM; in data set [3], 267 ± 14 µM; in data set [4], 316 ± 16 µM. In data set [2] (setting [5]), the inhibition in vivo at 25 mg/kg turned out to be 87.8%. The “Gastroprotective effect: Lesion index” value in data set [2] (single oral dose 25 mg/kg) came to 5.6 ± 3.2 mm.

Regarding `COC(=O)CNC(=O)C[C@H](C)CCC1=C(C)CCC2[C@@](C)(C(=O)O)CCC[C@]12C` (stereo partly drawn) [Compound 1, Labd-8(9)-en-15,19-dioic acid, 15-glycyl methyl ester amide], the results for the IC50 at 24 h in data set [1], in data set [3] and in data set [4] were 189 ± 9 µM, 447 ± 26 µM and 242 ± 13 µM, respectively. The inhibition in vivo at 25 mg/kg in data set [2] (setting [5]) is 73.3%. In data set [2] (single oral dose 25 mg/kg), the “Gastroprotective effect: Lesion index” value came to 12.3 ± 7.6 mm.

Consider `COC(=O)[C@H](Cc1c[nH]c2ccccc12)NC(=O)C[C@H](C)CCC1=C(C)CCC2[C@@](C)(C(=O)N[C@@H](Cc3c[nH]c4ccccc34)C(=O)OC)CCC[C@]12C` (stereo partly drawn) [Compound 10, Labd-8(9)-en-15,19-dioic acid, 15,19-ditryptophanyl methyl ester amide], for which the half-inhibitory concentration (IC50) at 24 h in data set [1], in data set [3] and in data set [4] was > 1000 µM in each case. Besides, the inhibition in vivo at 25 mg/kg in data set [2] (setting [5]) was determined as 61.7%. Also, the “Gastroprotective effect: Lesion index” value in data set [2] (single oral dose 25 mg/kg) is 17.6 ± 7.8 mm.

`C=C1CCC2[C@](C)(CCC[C@]2(C)C(=O)N[C@@H](CC(C)C)C(=O)OC)[C@H]1CC[C@@H](C)CC(=O)N[C@@H](CC(C)C)C(=O)OC` (stereo partly drawn) [Compound 18, Labd-8(17)-en-15,19-dioic acid, 15,19-dileucyl methyl ester amide]: the values for the IC50 at 24 h in data set [1], in data set [3] and in data set [4] were > 1000 µM, 495 ± 35 µM and > 1000 µM, respectively. Moreover, the inhibition in vivo at 25 mg/kg in data set [2] (setting [5]) was ~49.6%. Further, the “gastric lesion reduction at the higher doses” value in data set [2] is listed as 79-89%. For the same molecule, the “Gastroprotective effect: Lesion index” value in data set [2] (setting [6]) worked out at 23.2 ± 12.9 mm.

As for `COC(=O)[C@H](CC(C)C)NC(=O)C[C@H](C)CCC1=C(C)CCC2[C@@](C)(C(=O)O)CCC[C@]12C` (stereo partly drawn) [Compound 3, Labd-8(9)-en-15,19-dioic acid, 15-leucyl methyl ester amide], the IC50 at 24 h in data set [1] is 445 ± 27 µM; in data set [3] it was > 1000 µM; in data set [4], 806 ± 32 µM. Also, the inhibition in vivo at 25 mg/kg in data set [2] (setting [5]) worked out at 72.6%. Moreover, the “Gastroprotective effect: Lesion index” value in data set [2] (single oral dose 25 mg/kg) worked out at 12.6 ± 6.8 mm.

In the case of `C=C1CCC2[C@](C)(CCC[C@]2(C)C(=O)O)[C@H]1CC[C@@H](C)CC(=O)N[C@@H](CC(C)C)C(=O)OC` (stereo partly drawn) [Compound 13, Labd-8(17)-en-15,19-dioic acid, 15-leucyl methyl ester amide], the half-maximal inhibitory concentration (IC50) at 24 h in data set [1] is 308 ± 17 µM; in data set [3] it was 449 ± 29 µM; in data set [4], 808 ± 48 µM. Besides, the inhibition in vivo at 25 mg/kg in data set [2] (setting [5]) is ~65.6%. Also, the “gastric lesion reduction at the higher doses” value in data set [2] is listed as 79-89%. Further, the “Gastroprotective effect: % Lesion reduction” value in data set [2] (single oral dose 25 mg/kg, compared with untreated controls, 25 mg/kg) is given as 65.6%. The “Gastroprotective effect: Lesion index” value in data set [2] (setting [6]) turned out to be 15.8 ± 6.2 mm.
